PubChem BioAssay AID330 (DTP/NCI, 2004)
Several values for one entry are separate records, joined by “and”; a condition that tells them apart may be missing. Identical values can stand only once. Inconclusive results and toxic doses are left out. The calls were made as follows: active = survival T/C of 150% or more; inactive = T/C below 125% in these data.

Test system: P388 leukemia ip, CD2F1 mice, survival T/C
Assay: NCI In Vivo Anticancer Drug Screen. Data for tumor model P388 Leukemia (intraperitoneal) in CD2F1 (CDF1) mice
Conditions: endpoint: median survival time, higher = longer survival
Procedure, shortened: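 Mice carrying the transplanted tumor received test compound or vehicle. Survival was recorded in each group, and the value is the treated-group measurement divided by that of the vehicle-treated control group.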

[1] = dose: 50.0 mg/kg/injection, schedule: Q01DX009 (ip), vehicle: saline with Tween-80
[2] = dose: 100.0 mg/kg/injection, schedule: Q01DX009 (ip), vehicle: saline with Tween-80
[3] = dose: 200.0 mg/kg/injection, schedule: Q01DX009 (ip), vehicle: saline with Tween-80
[4] = dose: 25.0 mg/kg/injection, schedule: Q04DX002 (ip), vehicle: saline with Tween-80
[5] = dose: 50.0 mg/kg/injection, schedule: Q04DX002 (ip), vehicle: saline with Tween-80
[6] = dose: 60.0 mg/kg/injection, schedule: Q01DX005 (ip), vehicle: saline with Tween-80
[7] = dose: 120.0 mg/kg/injection, schedule: Q01DX005 (ip), vehicle: saline with Tween-80
[8] = dose: 240.0 mg/kg/injection, schedule: Q01DX005 (ip), vehicle: saline with Tween-80

Measured: T/C

CCCCCCCCCOCC(=O)OC
inactive: [1] 105 % of control | [2] 106 % of control | [3] 101 % of control

C(=C\CN(Cc1ccccc1)Cc1ccccc1)/CN(Cc1ccccc1)Cc1ccccc1
inactive: dose: 50.0 mg/kg/injection, schedule: Q04DX003 (ip), vehicle: Klucel (hydroxypropylcellulose) (HPC) 95 % of control | dose: 100.0 mg/kg/injection, schedule: Q04DX003 (ip), vehicle: Klucel (hydroxypropylcellulose) (HPC) 90 % of control | dose: 200.0 mg/kg/injection, schedule: Q04DX003 (ip), vehicle: Klucel (hydroxypropylcellulose) (HPC) 90 % of control

O=C(CN1CCCCC1)Nc1ccc(I)cc1
inactive: [1] 104 % of control | [2] 107 % of control | [3] 114 % of control

CCCCOc1ccc(Nc2c(C(=O)OCC)cnc3cc4c(cc23)OCO4)cc1
inactive: dose: 60.0 mg/kg/injection, schedule: Q01DX005 (ip), vehicle: Klucel (hydroxypropylcellulose) (HPC) 97 % of control | dose: 120.0 mg/kg/injection, schedule: Q01DX005 (ip), vehicle: Klucel (hydroxypropylcellulose) (HPC) 95 % of control | dose: 240.0 mg/kg/injection, schedule: Q01DX005 (ip), vehicle: Klucel (hydroxypropylcellulose) (HPC) 97 % of control

CCC[CH2][Sn]1([CH2]CCC)[S]CC[N]1S(=O)(=O)c1ccc(C)cc1
inactive: dose: 1.0 mg/kg/injection, schedule: Q01DX009 (ip), vehicle: gum acacia 114 % of control | dose: 1.5 mg/kg/injection, schedule: Q01DX009 (ip), vehicle: gum acacia 106 % of control | dose: 2.25 mg/kg/injection, schedule: Q01DX009 (ip), vehicle: gum acacia 120 % of control

CC(C)COc1cccc2[oH+]c(C(=O)[O-])cc(=O)c12.CC(C)COc1cccc2[oH+]c(C(=O)[O-])cc(=O)c12.[Cu+2]
inactive: dose: 12.5 mg/kg/injection, schedule: Q04DX002 (ip), vehicle: saline with Tween-80 104 % of control | [4] 95 % of control | [5] 94 % of control

CCOc1ccc2[nH]c(=S)sc2c1
inactive: dose: 50.0 mg/kg/injection, schedule: Q01DX009 (ip), vehicle: Klucel (hydroxypropylcellulose) (HPC) 100 % of control | dose: 100.0 mg/kg/injection, schedule: Q01DX009 (ip), vehicle: Klucel (hydroxypropylcellulose) (HPC) 100 % of control | dose: 200.0 mg/kg/injection, schedule: Q01DX009 (ip), vehicle: Klucel (hydroxypropylcellulose) (HPC) 101 % of control

COc1ccc2c3c(ccc2c1)CC1CCCN1C3 (stereo not drawn)
inactive: dose: 50.0 mg/kg/injection, schedule: Q01DX005 (ip), vehicle: other 116 % of control | dose: 100.0 mg/kg/injection, schedule: Q01DX005 (ip), vehicle: other 104 % of control

CC(C)=CCC1=C(C)C(=O)C(C)=C(C)C1=O
inactive: dose: 12.5 mg/kg/injection, schedule: Q01DX009 (ip), vehicle: distilled water + Tween-80 + alcohol 100 % of control | dose: 25.0 mg/kg/injection, schedule: Q01DX009 (ip), vehicle: distilled water + Tween-80 + alcohol 98 % of control | dose: 50.0 mg/kg/injection, schedule: Q01DX009 (ip), vehicle: distilled water + Tween-80 + alcohol 100 % of control | dose: 100.0 mg/kg/injection, schedule: Q01DX009 (ip), vehicle: distilled water + Tween-80 + alcohol 98 % of control | dose: 200.0 mg/kg/injection, schedule: Q01DX009 (ip), vehicle: distilled water + Tween-80 + alcohol 86 % of control

COc1cc(C(=O)NCCS(=O)(=O)O)cc(OC)c1OC
inactive: dose: 100.0 mg/kg/injection, schedule: Q01DX009 (ip), vehicle: saline 109 % of control | dose: 200.0 mg/kg/injection, schedule: Q01DX009 (ip), vehicle: saline 109 % of control | dose: 400.0 mg/kg/injection, schedule: Q01DX009 (ip), vehicle: saline 105 % of control

CCCCCC(O)C1C(=O)OC(C)C(O)/C=C/C=C/C=C/C=C/C=C(\C)C(O)C(O)C(O)CC(O)CC(O)CC(O)CC(O)CC1O (stereo not drawn)
inactive: dose: 0.5 mg/kg/injection, schedule: Q01DX010 (ip), vehicle: saline 100 % of control | dose: 1.0 mg/kg/injection, schedule: Q01DX010 (ip), vehicle: saline 100 % of control | dose: 2.0 mg/kg/injection, schedule: Q01DX010 (ip), vehicle: saline 100 % of control and 90 % of control | dose: 4.0 mg/kg/injection, schedule: Q01DX010 (ip), vehicle: saline 90 % of control | dose: 8.0 mg/kg/injection, schedule: Q01DX010 (ip), vehicle: saline 100 % of control

CN=C(N)NN=C(c1ccccc1)c1ccccc1
inactive: [4] 104 % of control | [5] 109 % of control | dose: 100.0 mg/kg/injection, schedule: Q04DX002 (ip), vehicle: saline with Tween-80 110 % of control

CCCCN(CCCC)c1ccc(C(=N)c2ccc(N(C)C)cc2)cc1
inactive: dose: 6.25 mg/kg/injection, schedule: Q01DX005 (ip), vehicle: Klucel (hydroxypropylcellulose) (HPC) 106 % of control | dose: 12.5 mg/kg/injection, schedule: Q01DX005 (ip), vehicle: Klucel (hydroxypropylcellulose) (HPC) 106 % of control

CN(C)C(=O)Oc1ccc(Br)cc1
inactive: [1] 101 % of control | [2] 94 % of control | [3] 103 % of control

CSC(=S)n1nc(-c2ccccc2)c(N=Nc2ccc(Br)cc2)c1C
inactive: dose: 100.0 mg/kg/injection, schedule: Q04DX002 (ip), vehicle: Klucel (hydroxypropylcellulose) (HPC) 98 % of control | dose: 200.0 mg/kg/injection, schedule: Q04DX002 (ip), vehicle: Klucel (hydroxypropylcellulose) (HPC) 100 % of control | dose: 400.0 mg/kg/injection, schedule: Q04DX002 (ip), vehicle: Klucel (hydroxypropylcellulose) (HPC) 94 % of control

CC[C@H](C)C(NC(=O)[C@H]1N=C(c2csc(C(O)Cc3ccccc3)n2)OC1C)C(=O)OC (stereo partly drawn)
inactive: [6] 99 % of control | [7] 98 % of control | [8] 100 % of control

COc1ccc2nc(C#N)ccc2c1
inactive: dose: 50.0 mg/kg/injection, schedule: Q01DX005 (ip), vehicle: saline with Tween-80 92 % of control | dose: 100.0 mg/kg/injection, schedule: Q01DX005 (ip), vehicle: saline with Tween-80 90 % of control | dose: 200.0 mg/kg/injection, schedule: Q01DX005 (ip), vehicle: saline with Tween-80 95 % of control

COC(=O)C(C)CC(C)(CC(C)(CC(C)(C)C(=O)OC)C(=O)OC)C(=O)OC (stereo not drawn) (tested in a mixture with another compound)
inactive: [6] 100 % of control | [7] 96 % of control | [8] 100 % of control

CO/C=N/c1cn2c(n1)CN=C2
inactive: dose: 100.0 mg/kg/injection, schedule: Q01DX001 (ip), vehicle: saline 102 % of control | dose: 200.0 mg/kg/injection, schedule: Q01DX001 (ip), vehicle: saline 95 % of control | dose: 400.0 mg/kg/injection, schedule: Q01DX001 (ip), vehicle: saline 96 % of control

COC1/C=C/OC2(C)Oc3c(C)c(O)c4c(O)c(c(/C=N/N5CC(C)N(Cc6ccccc6)C(C)C5)c(O)c4c3C2=O)NC(=O)C(C)=C/C=C/C(C)C(O)C(C)C(O)C(C)C(OC(C)=O)C1C (stereo not drawn)
inactive: dose: 12.5 mg/kg/injection, schedule: Q01DX009 (ip), vehicle: saline with Tween-80 113 % of control | dose: 25.0 mg/kg/injection, schedule: Q01DX009 (ip), vehicle: saline with Tween-80 109 % of control | [1] 118 % of control and 124 % of control | [2] 114 % of control
